Reference: US5484584A, “Therapeutic and diagnostic use of modified polymeric microcapsules” (priority 1992, dated 1996)

Assay: In vivo tissue distribution of 131I-ethyliopanoate loaded microcapsules after i.v. injection
Set-up: species or system rat
Conditions: rats, 5 uCi radiotracer
Procedure: PBLG and estrone-PBLG microcapsules loaded with [^131 I]ethyliopanoate (5.7 μCi in […] of water) were administered to rats in the tail vein. Rats (N=3/group) were sacrificed at 1, 3, 6, and 24 hours after injection. The percentage of injected dose in an organ or tissue was determined by a gamma counter.
Estrone conjugated poly-benzyl-L-glutamate microcapsules loaded with ^131 I-labeled ethyliopanoate were injected into rats (three per group) via the tail-vein (5.7 μCi in 0.3 ml water). Control groups were given only the ^131 I-labeled iopanoic acid. Rats were sacrificed at 1, 3, 6 and 24 hours post injection. The percent of injected dose per organ or per tissue weight was determined by a COBRA Auto-gamma counter (Packard, Meridien, Conn.).

For `CCOC(=O)C(CC)Cc1c(I)cc(I)c(N)c1I` (stereo not drawn) [IOPA, ethyliopanoate], which “UTERUS TO MUSCLE RATIO” value (1 hr) is on record?
Its value is 2.92 ± 0.464.

And the “UTERUS TO MUSCLE RATIO” value (3 hrs)?
Its value is 3.60 ± 0.346.

And the “UTERUS TO MUSCLE RATIO” value (6 hrs)?
The value was 3.47 ± 0.122.
